Nine compounds from ChEMBL document CHEMBL5291721, “A preclinical secondary pharmacology resource illuminates target-adverse drug reaction associations of marketed drugs” (Nat Commun, 2023) can be followed below.

Among the targets are Motilin receptor (Homo sapiens, UniProt O43193); Vasopressin V2 receptor (Homo sapiens, UniProt P30518); Vasopressin V1a receptor (Homo sapiens, UniProt P37288); D(3) dopamine receptor (Homo sapiens, UniProt P35462); Melanocortin receptor 3 (Homo sapiens, UniProt P41968).
The target of another assay is T1, Adenosine receptor A3 (Homo sapiens, UniProt P0DMS8).
T1 sequence (P0DMS8 whole entry): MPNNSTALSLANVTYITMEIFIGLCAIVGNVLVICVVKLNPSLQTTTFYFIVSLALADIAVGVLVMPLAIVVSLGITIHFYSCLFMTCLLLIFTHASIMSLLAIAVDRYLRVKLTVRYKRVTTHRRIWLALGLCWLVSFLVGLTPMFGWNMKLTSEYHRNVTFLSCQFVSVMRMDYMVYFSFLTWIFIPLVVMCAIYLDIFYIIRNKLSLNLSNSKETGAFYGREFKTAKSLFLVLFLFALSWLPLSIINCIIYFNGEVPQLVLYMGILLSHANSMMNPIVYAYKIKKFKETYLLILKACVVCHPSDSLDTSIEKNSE

Assay [1] concerns the target T2, Neuropeptide Y receptor type 1 (Homo sapiens, UniProt P25929).
T2 sequence (P25929 whole entry): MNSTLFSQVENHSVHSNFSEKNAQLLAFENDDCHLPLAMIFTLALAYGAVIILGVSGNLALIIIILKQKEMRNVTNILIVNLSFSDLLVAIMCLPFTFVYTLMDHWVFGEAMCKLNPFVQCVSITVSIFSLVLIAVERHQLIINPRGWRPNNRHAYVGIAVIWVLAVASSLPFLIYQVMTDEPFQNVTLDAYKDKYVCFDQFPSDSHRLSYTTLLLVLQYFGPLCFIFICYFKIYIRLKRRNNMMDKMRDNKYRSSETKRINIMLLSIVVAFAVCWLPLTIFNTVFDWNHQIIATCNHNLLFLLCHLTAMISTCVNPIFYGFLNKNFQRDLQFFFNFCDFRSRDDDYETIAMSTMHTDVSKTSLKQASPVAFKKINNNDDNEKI

For assay [2], the target named is T3, Alpha-2C adrenergic receptor (Homo sapiens, UniProt P18825).
T3 sequence (P18825 whole entry): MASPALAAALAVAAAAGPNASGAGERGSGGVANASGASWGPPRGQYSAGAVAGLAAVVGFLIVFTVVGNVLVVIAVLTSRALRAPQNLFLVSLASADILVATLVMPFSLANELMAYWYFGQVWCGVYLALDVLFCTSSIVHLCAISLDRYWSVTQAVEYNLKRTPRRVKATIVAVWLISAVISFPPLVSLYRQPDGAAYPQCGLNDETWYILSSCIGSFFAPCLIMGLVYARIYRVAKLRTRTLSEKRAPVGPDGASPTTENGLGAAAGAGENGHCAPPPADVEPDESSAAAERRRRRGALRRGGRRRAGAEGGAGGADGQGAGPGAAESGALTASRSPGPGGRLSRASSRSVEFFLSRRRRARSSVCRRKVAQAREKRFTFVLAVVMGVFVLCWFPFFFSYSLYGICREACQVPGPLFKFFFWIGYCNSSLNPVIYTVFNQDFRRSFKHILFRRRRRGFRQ
Format: functional.

In assay [3] the target is Sodium-dependent dopamine transporter (Homo sapiens, UniProt Q01959).
In the next assay the target is Cannabinoid receptor 1 (Homo sapiens, UniProt P21554). It is filed as functional, cell-based.
Assay [4] addresses 3',5'-cyclic-AMP phosphodiesterase 4D (Homo sapiens, UniProt Q08499). It is filed as functional.
Another assay deals with D(1A) dopamine receptor (Homo sapiens, UniProt P21728). Format: functional, cell-based.
Assay [5] concerns the target T4, Alpha-2A adrenergic receptor (Homo sapiens, UniProt P08913).
T4 sequence (P08913 whole entry): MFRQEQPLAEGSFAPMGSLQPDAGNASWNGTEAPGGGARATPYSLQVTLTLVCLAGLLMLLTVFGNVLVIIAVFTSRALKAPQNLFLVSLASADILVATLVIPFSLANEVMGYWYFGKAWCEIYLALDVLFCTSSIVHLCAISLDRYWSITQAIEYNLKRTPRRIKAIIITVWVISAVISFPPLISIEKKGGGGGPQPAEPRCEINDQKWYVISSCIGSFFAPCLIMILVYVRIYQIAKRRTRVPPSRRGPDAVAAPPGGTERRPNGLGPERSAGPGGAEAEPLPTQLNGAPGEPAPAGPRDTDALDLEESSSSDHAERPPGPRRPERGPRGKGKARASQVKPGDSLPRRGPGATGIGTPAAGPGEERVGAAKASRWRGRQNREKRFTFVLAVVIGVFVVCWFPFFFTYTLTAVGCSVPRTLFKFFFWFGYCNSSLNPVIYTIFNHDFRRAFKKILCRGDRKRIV
It is filed as functional, cell-based.

The target of assay [6] is cGMP-inhibited 3',5'-cyclic phosphodiesterase 3A (Homo sapiens, UniProt Q14432). Format: functional.
Assay [7] has as its target Voltage-gated inwardly rectifying potassium channel KCNH2 (Homo sapiens, UniProt Q12809). Format: functional. The conditions noted are these: read-out: AC50.
The target in assay [8] is Sodium-dependent serotonin transporter (Homo sapiens, UniProt P31645).
Assay [9] deals with T5, Alpha-2B adrenergic receptor (Homo sapiens, UniProt P18089).
T5 sequence (P18089 whole entry): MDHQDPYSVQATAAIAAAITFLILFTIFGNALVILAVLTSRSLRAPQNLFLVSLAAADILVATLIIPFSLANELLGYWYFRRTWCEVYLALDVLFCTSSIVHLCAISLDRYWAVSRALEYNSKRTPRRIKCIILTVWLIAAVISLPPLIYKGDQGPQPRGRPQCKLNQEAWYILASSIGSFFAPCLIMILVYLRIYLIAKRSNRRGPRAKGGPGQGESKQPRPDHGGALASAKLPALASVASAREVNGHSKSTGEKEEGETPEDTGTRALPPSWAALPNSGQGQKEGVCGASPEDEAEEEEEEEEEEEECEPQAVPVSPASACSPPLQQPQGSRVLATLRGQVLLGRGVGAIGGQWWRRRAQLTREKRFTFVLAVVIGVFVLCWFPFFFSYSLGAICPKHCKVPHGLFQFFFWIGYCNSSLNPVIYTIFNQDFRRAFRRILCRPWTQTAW

Assay [10] addresses Muscarinic acetylcholine receptor M3 (Homo sapiens, UniProt P20309).

Where “and” joins values, the source holds several entries; their conditions need not be identical. Identical values can stand only once. Some results are limits rather than exact numbers.
Also: assay procedure not described here.

Chain of D(3) dopamine receptor (P35462 whole entry): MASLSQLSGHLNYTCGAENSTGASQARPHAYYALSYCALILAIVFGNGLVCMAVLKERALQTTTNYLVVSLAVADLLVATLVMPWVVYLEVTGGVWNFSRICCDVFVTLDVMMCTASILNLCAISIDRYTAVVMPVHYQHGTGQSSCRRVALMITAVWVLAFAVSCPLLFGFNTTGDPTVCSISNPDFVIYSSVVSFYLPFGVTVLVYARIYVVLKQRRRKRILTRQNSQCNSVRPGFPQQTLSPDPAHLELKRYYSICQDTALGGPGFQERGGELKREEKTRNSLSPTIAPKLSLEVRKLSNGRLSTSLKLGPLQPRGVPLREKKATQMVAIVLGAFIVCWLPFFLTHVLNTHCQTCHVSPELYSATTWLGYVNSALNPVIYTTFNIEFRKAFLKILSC
Chain of Vasopressin V1a receptor (P37288 whole entry): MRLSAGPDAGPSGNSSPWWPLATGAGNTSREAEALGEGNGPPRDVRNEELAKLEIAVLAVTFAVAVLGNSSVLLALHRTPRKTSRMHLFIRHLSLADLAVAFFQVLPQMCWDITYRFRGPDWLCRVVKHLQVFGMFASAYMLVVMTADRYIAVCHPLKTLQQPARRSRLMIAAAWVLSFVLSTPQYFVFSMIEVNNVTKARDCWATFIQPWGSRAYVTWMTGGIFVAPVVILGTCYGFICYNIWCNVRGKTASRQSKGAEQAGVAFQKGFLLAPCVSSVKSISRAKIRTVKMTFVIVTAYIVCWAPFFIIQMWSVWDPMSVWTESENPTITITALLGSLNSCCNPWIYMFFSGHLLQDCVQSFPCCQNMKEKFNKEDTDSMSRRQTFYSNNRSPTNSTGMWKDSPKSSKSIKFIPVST
Chain of Melanocortin receptor 3 (P41968 whole entry): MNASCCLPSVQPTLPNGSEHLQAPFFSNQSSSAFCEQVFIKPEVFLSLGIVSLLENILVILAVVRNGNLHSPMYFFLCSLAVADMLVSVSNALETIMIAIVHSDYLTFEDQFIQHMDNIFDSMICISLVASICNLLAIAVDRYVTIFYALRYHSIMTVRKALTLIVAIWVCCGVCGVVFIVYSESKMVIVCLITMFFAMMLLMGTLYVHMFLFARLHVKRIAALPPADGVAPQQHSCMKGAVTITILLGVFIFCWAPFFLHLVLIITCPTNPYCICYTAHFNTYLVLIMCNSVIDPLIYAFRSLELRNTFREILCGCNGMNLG
Chain of Vasopressin V2 receptor (P30518 whole entry): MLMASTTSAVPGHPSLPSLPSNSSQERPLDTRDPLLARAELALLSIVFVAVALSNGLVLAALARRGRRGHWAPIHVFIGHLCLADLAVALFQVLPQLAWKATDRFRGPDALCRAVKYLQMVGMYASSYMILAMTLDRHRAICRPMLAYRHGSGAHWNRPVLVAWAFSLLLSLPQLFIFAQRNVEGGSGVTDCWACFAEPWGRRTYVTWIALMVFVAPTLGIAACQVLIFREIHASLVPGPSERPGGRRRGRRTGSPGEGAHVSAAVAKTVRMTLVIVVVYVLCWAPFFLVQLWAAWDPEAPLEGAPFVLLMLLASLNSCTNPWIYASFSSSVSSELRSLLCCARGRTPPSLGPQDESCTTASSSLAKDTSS
Chain of Motilin receptor (O43193 whole entry): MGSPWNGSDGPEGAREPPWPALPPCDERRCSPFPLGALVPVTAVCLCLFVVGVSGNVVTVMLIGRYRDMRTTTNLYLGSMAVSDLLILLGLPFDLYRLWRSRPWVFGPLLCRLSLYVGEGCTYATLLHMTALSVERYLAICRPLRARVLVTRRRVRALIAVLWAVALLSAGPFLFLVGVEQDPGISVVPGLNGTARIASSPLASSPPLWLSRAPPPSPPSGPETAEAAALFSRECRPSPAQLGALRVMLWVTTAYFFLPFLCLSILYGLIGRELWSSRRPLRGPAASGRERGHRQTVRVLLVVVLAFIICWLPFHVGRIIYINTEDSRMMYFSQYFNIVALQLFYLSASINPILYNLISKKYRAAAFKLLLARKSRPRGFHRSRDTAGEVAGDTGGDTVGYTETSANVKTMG
Chain of 3',5'-cyclic-AMP phosphodiesterase 4D (Q08499 whole entry): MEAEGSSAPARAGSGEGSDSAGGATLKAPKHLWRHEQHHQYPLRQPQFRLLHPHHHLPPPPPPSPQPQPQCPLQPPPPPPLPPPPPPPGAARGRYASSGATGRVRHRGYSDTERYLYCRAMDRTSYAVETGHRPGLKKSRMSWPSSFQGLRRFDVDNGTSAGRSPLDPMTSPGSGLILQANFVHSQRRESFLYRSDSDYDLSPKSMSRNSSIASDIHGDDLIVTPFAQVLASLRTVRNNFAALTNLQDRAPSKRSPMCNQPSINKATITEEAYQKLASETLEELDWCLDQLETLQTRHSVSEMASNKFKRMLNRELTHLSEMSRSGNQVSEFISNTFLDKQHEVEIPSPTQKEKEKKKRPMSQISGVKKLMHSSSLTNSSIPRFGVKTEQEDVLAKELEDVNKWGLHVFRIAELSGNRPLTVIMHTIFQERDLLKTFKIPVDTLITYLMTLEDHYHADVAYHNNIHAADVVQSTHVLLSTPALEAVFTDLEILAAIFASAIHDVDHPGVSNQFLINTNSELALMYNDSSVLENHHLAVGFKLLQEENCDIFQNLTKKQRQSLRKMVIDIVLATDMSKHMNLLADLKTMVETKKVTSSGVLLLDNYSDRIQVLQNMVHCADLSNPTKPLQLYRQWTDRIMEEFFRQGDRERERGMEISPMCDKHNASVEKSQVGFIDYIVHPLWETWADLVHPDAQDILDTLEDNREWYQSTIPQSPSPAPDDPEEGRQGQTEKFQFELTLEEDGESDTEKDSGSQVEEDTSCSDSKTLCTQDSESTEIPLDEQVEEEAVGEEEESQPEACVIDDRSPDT
Chain of Muscarinic acetylcholine receptor M3 (P20309 whole entry): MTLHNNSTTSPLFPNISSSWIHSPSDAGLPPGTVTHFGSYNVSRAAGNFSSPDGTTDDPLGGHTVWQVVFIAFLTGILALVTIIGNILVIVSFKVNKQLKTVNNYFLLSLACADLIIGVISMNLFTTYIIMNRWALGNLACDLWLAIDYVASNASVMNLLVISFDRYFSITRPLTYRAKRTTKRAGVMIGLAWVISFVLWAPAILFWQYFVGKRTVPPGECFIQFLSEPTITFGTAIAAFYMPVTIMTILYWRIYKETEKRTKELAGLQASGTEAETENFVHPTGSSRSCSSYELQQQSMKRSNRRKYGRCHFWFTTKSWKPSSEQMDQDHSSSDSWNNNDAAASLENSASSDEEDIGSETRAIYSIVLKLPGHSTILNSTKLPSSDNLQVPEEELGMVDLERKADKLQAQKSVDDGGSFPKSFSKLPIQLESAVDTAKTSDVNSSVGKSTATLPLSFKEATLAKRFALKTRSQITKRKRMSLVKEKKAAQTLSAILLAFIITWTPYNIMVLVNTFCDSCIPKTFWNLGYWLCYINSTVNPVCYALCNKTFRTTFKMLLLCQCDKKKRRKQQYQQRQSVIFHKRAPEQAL
Chain of D(1A) dopamine receptor (P21728 whole entry): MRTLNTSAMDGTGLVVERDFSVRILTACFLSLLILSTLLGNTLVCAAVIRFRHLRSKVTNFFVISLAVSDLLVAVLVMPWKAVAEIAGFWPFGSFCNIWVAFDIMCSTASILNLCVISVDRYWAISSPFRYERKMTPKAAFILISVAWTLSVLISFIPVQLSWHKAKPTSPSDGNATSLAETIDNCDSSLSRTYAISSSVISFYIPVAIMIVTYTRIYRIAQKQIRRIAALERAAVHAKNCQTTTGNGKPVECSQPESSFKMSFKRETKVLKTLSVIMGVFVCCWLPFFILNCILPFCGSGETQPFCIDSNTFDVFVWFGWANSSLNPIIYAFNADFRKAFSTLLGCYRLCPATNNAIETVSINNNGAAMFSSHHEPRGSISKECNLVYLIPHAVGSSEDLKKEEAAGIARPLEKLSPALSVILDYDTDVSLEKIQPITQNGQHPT
Chain of Sodium-dependent serotonin transporter (P31645 whole entry): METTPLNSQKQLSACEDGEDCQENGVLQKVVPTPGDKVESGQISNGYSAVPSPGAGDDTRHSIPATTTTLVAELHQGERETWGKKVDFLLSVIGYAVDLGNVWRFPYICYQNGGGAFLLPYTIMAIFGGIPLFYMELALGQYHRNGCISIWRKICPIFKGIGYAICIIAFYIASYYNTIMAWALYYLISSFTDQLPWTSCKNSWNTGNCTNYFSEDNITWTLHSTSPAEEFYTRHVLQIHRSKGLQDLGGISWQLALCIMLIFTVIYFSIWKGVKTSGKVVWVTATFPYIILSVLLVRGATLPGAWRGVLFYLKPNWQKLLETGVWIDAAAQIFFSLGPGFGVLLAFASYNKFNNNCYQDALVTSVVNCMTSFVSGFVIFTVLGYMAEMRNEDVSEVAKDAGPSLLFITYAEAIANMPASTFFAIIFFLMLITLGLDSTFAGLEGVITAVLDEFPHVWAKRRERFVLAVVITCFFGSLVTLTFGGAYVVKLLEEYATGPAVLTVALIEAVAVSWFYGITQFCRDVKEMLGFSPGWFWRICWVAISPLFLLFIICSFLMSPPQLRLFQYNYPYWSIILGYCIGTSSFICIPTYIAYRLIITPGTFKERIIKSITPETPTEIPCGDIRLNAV
Chain of Cannabinoid receptor 1 (P21554 whole entry): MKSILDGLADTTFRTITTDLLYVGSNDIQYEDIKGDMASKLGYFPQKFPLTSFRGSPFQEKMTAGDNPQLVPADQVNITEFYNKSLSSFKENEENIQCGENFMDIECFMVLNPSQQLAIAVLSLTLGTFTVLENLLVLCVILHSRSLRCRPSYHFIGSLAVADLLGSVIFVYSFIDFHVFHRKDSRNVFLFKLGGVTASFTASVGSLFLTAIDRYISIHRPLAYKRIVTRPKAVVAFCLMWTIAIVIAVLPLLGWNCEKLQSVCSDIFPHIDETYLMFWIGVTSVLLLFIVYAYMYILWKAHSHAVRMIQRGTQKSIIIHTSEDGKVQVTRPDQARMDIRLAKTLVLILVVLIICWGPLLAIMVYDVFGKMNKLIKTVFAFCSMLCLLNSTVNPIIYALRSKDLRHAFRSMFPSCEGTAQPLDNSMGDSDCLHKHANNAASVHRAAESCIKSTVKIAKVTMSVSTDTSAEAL

One may read the AC50 as the concentration giving half of the maximal activity seen. For `CNS(=O)(=O)Cc1ccc2[nH]cc(CCN(C)C)c2c1`, the AC50 was more than 30 µM on Adenosine receptor A3; more than 10 µM on Motilin receptor; more than 30 µM at Vasopressin V2 receptor; more than 30 µM in assay [1]; more than 30 µM in assay [2]; more than 10 µM in [3]. Besides, the concentration at half-maximal activity (AC50) at Cannabinoid receptor 1 is more than 30 µM; at Vasopressin V1a receptor, more than 10 µM; on D(3) dopamine receptor it was more than 30 µM; in assay [4] it was more than 30 µM; on D(1A) dopamine receptor, more than 30 µM; in [5], more than 30 µM. The AC50 (in assay [6]; in assay [7]; at Melanocortin receptor 3) was more than 30 µM each time.

Consider `CO/N=C(\C(=O)N[C@@H]1C(=O)N2C(C(=O)O)=C(CSc3nnnn3C)CS[C@H]12)c1csc(N)n1` [CEFMENOXIME], for which the AC50 (at Adenosine receptor A3; on Motilin receptor; on Vasopressin V2 receptor; in assay [1]; in assay [2]; in [3]) was more than 30 µM throughout. The AC50 (on Cannabinoid receptor 1; in assay [8]; on Vasopressin V1a receptor; in assay [4]; on D(1A) dopamine receptor; in assay [5]) was more than 30 µM each time. The AC50 (in assay [6]; in assay [7]; on Melanocortin receptor 3) was more than 30 µM each time.

On to `Cn1c(=O)c2c(ncn2CC2OCCO2)n(C)c1=O` [DOXOFYLLINE], for which the AC50 on Adenosine receptor A3 was more than 30 µM; on Motilin receptor it was more than 30 µM; at Vasopressin V2 receptor, more than 10 µM; in [1], more than 30 µM; in [2] it was more than 30 µM; in assay [3], more than 30 µM. Also, the AC50 (on Cannabinoid receptor 1; at D(3) dopamine receptor; in assay [4]; at D(1A) dopamine receptor; in [5]; in assay [6]) was more than 30 µM each time. Besides, the AC50 (in assay [7]; on Melanocortin receptor 3) was more than 30 µM each time.

With `CNC(C)CCC=C(C)C` (stereo not given) [ISOMETHEPTENE], the AC50 (at Adenosine receptor A3; at Motilin receptor; on Vasopressin V2 receptor; in [1]; in assay [3]; in assay [8]) was more than 30 µM each time. For the same compound, the AC50 (at Vasopressin V1a receptor; in assay [7]; on Melanocortin receptor 3) was more than 30 µM in each case.

On to `Cc1cccc(C(C)c2cnc[nH]2)c1C` (stereo not given) [MEDETOMIDINE], for which the AC50 at Adenosine receptor A3 is more than 30 µM; on Motilin receptor it was more than 30 µM; on Vasopressin V2 receptor, more than 30 µM; in [1] it was more than 30 µM; in assay [2] it was 1.3 µM; in [3], more than 30 µM. In addition, the AC50 was 2.1 µM in assay [9]; more than 30 µM in assay [10]; more than 30 µM at Vasopressin V1a receptor; more than 30 µM at D(3) dopamine receptor; more than 30 µM in assay [4]; more than 30 µM at D(1A) dopamine receptor. Also, the AC50 was more than 30 µM in assay [6], 17.8 µM in assay [7] and more than 30 µM on Melanocortin receptor 3.

With `N#Cc1ccc([C@H]2CCc3cncn32)c(F)c1` [OSILODROSTAT], the AC50 (at Adenosine receptor A3; on Motilin receptor; in assay [1]; in [2]; in [3]; in assay [9]) was more than 10 µM each time. The AC50 in assay [10] was more than 10 µM; at Vasopressin V1a receptor, more than 10 µM; at D(3) dopamine receptor, more than 10 µM; in [4], more than 10 µM; in [6], more than 10 µM; in assay [7] it was 19.7 µM. For the same compound, at Melanocortin receptor 3, the AC50 was more than 10 µM.

Consider `O=C(O)C[C@H](O)C[C@H](O)/C=C/c1c(C2CC2)nc2ccccc2c1-c1ccc(F)cc1` [PITAVASTATIN], for which the AC50 was more than 30 µM at Adenosine receptor A3; more than 10 µM on Motilin receptor; more than 10 µM on Vasopressin V2 receptor; more than 10 µM in [1]; more than 30 µM in [2]; more than 30 µM in assay [3]. Besides, the AC50 in assay [8] was more than 10 µM; in [10], more than 30 µM; at Vasopressin V1a receptor, more than 10 µM; on D(3) dopamine receptor it was more than 30 µM; in assay [4], 0.93 µM and 0.67 µM; at D(1A) dopamine receptor, more than 10 µM. In addition, the AC50 in [5] was more than 10 µM; in [6] it was more than 30 µM; in [7], more than 30 µM; on Melanocortin receptor 3, more than 30 µM.

`CN1C(=O)OC(C)(C)C1=O` [TRIMETHADIONE]: the AC50 (on Adenosine receptor A3; at Motilin receptor; at Vasopressin V2 receptor; in assay [1]; in assay [2]; in assay [3]) was more than 10 µM throughout. For the same compound, the AC50 at Cannabinoid receptor 1 was more than 30 µM; at D(3) dopamine receptor, more than 30 µM; in [4], more than 30 µM; on D(1A) dopamine receptor, more than 10 µM; in assay [5], more than 10 µM; in [6] it was more than 30 µM. The AC50 in assay [7] was more than 30 µM; at Melanocortin receptor 3 it was more than 10 µM.

For `CC(=O)O[C@H]1C[C@@H]2CC[C@@H]3[C@H](CC[C@@]4(C)[C@H]3C[C@H]([N+]3(C)CCCCC3)[C@@H]4OC(C)=O)[C@@]2(C)C[C@@H]1N1CCCCC1` [VECURONIUM], the AC50 (at Adenosine receptor A3; on Motilin receptor; at Vasopressin V2 receptor; in assay [1]; in assay [2]; in [3]) was more than 30 µM each time. The concentration at half-maximal activity (AC50) (at Cannabinoid receptor 1; at D(3) dopamine receptor; in assay [4]; at D(1A) dopamine receptor; in assay [5]; in [6]) was more than 30 µM throughout. Further, the AC50 is 10.4 µM in [7] and more than 30 µM at Melanocortin receptor 3.
